Measurements taken from PMC9739537, “Bioassay-Guided Fractionation with Antimalarial and Antimicrobial Activities of Paeonia officinalis” (Molecules, 2022).
In brackets after ≈: the same amount, converted by molar mass. Where two headings read alike, the source gives them in different places.

Key:
[1] = system: P. falciparum W2; test: Antimalarial assay (plasmodial LDH activity), W2 strain; assay type: cell-based, Plasmodium falciparum; settings: for IC50: Plasmodium falciparum, read-out: IC50 antiplasmodial activity, P. falciparum W2; for SI (Selectivity index), P. falciparum W2: VERO vs P. falciparum W2
Description: (§1) The assay is based on the measurement of plasmodial LDH activity. The test was conducted using a suspension of red blood cells infected with D6 or W2 strains of P. falciparum (200 µL, with 2% parasitemia, and 2% hematocrit in RPMI 1640 medium supplemented with 10% human serum and 60 µg/mL Amikacin) into the wells of a 96-well plate containing 10 µL of test samples diluted in medium at various concentrations. The plate was put in a modular incubation chamber (Billups-Rothenberg, San Diego, CA, USA); flushed with a gas mixture consisting of 90% N2, 5% O2, and 5% CO2; and incubated for 72 h at 37 °C. Parasitic LDH activity was measured by utilizing Malstat reagent (Flow Inc., Portland, OR, USA). Briefly, 20 µL of the incubation mixture was combined with 100 µL of the Malstat reagent and incubated at room temperature for 30 min. Then, twenty microliters of a 1:1 mixture of NBT/PES (Sigma, St. Louis, MO, USA) was added and the plate was further incubated in the dark for 1 h. The reaction was then stopped by the addition of 100 µL of a 5% acetic acid solution. The plate was read at 650 nm using the EL-340 Biokinetics Reader (Bio-Tek Instruments, Winooski, VT, USA). The dose–response curves were used to calculate IC50 values. […] Dimethyl sulfoxide (0.25%) was used as vehicle control.

[2] = system: VERO; test: Cytotoxicity toward mammalian kidney fibroblasts (Vero); assay type: cell-based; settings: Chlorocebus sabaeus, VERO cells
[3] = system: P. falciparum D6; test: Antimalarial assay (plasmodial LDH activity), D6 strain; assay type: cell-based, Plasmodium falciparum; settings: for IC50: Plasmodium falciparum, read-out: IC50 antiplasmodial activity, P. falciparum D6; for SI (Selectivity index), P. falciparum D6: VERO vs P. falciparum D6
Description: as §1

[4] = system: Candida albicans, C. neoformans, Aspergillus fumigatus, MRS, E. coli, Pseudomonas aeruginosa, Klebsiella pneumoniae, VRE; test: Antimicrobial panel (all assayed microorganisms); assay type: cell-based; settings: at the tested concentration
Excerpt: (§2) The microorganism strains that were employed to test the antimicrobial activity were Candida albicans Pinh, C. neoformans Pinh, Aspergillus fumigatus Pinh, methicillin-resistant Staphylococcus aureus Pinh (MRS), E. coli Pinh, Pseudomonas aeruginosa Pinh, Klebsiella pneumoniae Pinh, and Vancomycin-resistant Enterococci (VRE) Pinh. The strains were bought from the American Type Culture Collection. A modified version of the CLSI methodology was used for the susceptibility testing. A final DMSO concentration of 1% was maintained in the assay by serially diluting all samples in 20% DMSO/saline and transferring them in duplicate to 384 well flat-bottom microplates. Following the McFarland standard, inocula were created by adjusting the OD630 of microbe suspensions in incubation broth. C. albicans was cultured in RPMI 1640 broth (2% dextrose, 0.03% glutamine, and MOPS at pH 6); C. neoformans in Sabouraud Dextrose; MRS, VRE, E. coli, K. pneumoniae, and P. aeruginosa in cation-adjusted Mueller–Hinton at pH 7.3, and A. fumigatus in RPMI 1640 broth (2% dextrose, 0.03% glutamine, buffered with 0.165 M MOPS at pH 7). Five percent Alamar Blue was added in A. fumigatus, VRE, and MRS. In every assay, there were drug controls for bacteria and fungi. […] A Bio-Tek plate reader was used to measure the optical density (530 nm) or fluorescence (544ex/590em) before and after incubation.

[5] = system: Pseudomonas aeruginosa; test: Antimicrobial susceptibility testing (modified CLSI), P. aeruginosa; assay type: cell-based
Excerpt: as §2

[6] = system: methicillin-resistant Staphylococcus aureus (MRS); test: Antimicrobial susceptibility testing (modified CLSI), MRS; assay type: cell-based
Excerpt: as §2

[7] = system: Klebsiella pneumoniae; test: Antimicrobial susceptibility testing (modified CLSI), K. pneumoniae; assay type: cell-based
Excerpt: as §2

[8] = system: C. neoformans; test: Antimicrobial susceptibility testing (modified CLSI), C. neoformans; assay type: cell-based, Cryptococcus neoformans
Excerpt: as §2

Row | Structure (SMILES) | IC50 [2] [µg/mL] | IC50 ([1]; W2 strain, 72 h) [µg/mL] | SI (Selectivity index), P. falciparum W2 [1] | antiplasmodial activity against P. falciparum W2 (in words) ([1]; W2 strain) | antiplasmodial activity against P. falciparum D6 (in words) ([3]; D6 strain) | IC50 ([3]; D6 strain, 72 h) [µg/mL] | SI (Selectivity index), P. falciparum D6 [3] | antimicrobial activity (in words) [4] | also measured
1 | CCN(CC)CCCC(C)Nc1ccnc2cc(Cl)ccc12 (stereo not shown) [Chloroquine, chloroquine, reference compound] | > 0.24 |  |  |  |  |  |  |  | IC50 ([1]; W2, 72 h): 0.14 µg/mL (≈ 0.438 µM); IC50 ([3]; D6, 72 h): 0.026 µg/mL (≈ 0.0813 µM)
2 | C[C@@]12C[C@@]3(O)O[C@@H](O1)[C@]1(COC(=O)c4ccccc4)[C@@H]3C[C@]12O[C@@H]1O[C@H](COC(=O)c2cc(O)c(O)c(O)c2)[C@@H](O)[C@H](O)[C@H]1O [compound 5, galloyl paeoniflorin] | > 4.76 | 2.91 (≈ 4.6 µM) | >1.6 | remarkable antiplasmodial activity | remarkable antiplasmodial activity | 4.72 (≈ 7.46 µM) | >1 | no exhibition of antimicrobial activity | 
3 | COC(=O)c1cc(O)c(O)c(O)c1 [compound 3, methyl gallate] | > 4.76 | 0.61 (≈ 3.31 µM) | >7.8 | remarkable antiplasmodial activity | remarkable antiplasmodial activity | 1.57 (≈ 8.53 µM) | >3 | no exhibition of antimicrobial activity | 
4 | C[C@@H](O)[C@H]1C(=O)N2C(C(=O)O)=C(S[C@@H]3CN[C@H](C(=O)N(C)C)C3)[C@H](C)[C@H]12 [Meropenem, meropenem] |  |  |  |  |  |  |  |  | IC50 [5]: 28.7 µg/mL (≈ 74.8 µM); IC50 [6]: 46.9 µg/mL (≈ 122 µM); IC50 antimicrobial activity, K. pneumoniae [7]: 9.143 µg/mL (≈ 23.8 µM); IC50 antimicrobial activity, K. pneumoniae ([7]; listed as meropenem): 43.94 µg/mL (≈ 115 µM)
5 | OC(Cn1cncn1)(Cn1cncn1)c1ccc(F)cc1F [Fluconazole, fluconazole] |  |  |  |  |  |  |  |  | IC50 antimicrobial activity, C. neoformans [8]: 4.684 µg/mL (≈ 15.3 µM); IC50 ([8]; Cryptococcus neoformans): 4.68 µg/mL (≈ 15.3 µM)
